Where a name gives a salt, the structure may show the parent alone. Read-outs that look alike come from different tables or passages of the source.
Legend:
Format in all cases: cell-based, human
MCF-7-AdrR cells [1] = assay: Cytotoxicity assay in MCF-7-AdrR cells; settings: 72 hr exposure, read-out: EC50 (amount of drug provoking 50% cell death)
Protocol: (§1) Cytotoxicity Assay. Assays were performed as previously described (Liu, Y. Y., et al., (1999) J. Biol. Chem. 274, 1140-1146; Lavie, Y. et al., (1997) J. Biol. Chem. 272, 1682-1687). Briefly, cells were seeded in 96-well plates (2,000 cells/well), in 0.1 ml RPMI-1640 medium containing 10% FBS, and cultured at 37° C. for 24 hr before addition of drug. Drugs were added in FBS-free medium (0.1 ml), and cells were cultured at 37° C. for the indicated periods. Drug cytotoxicity was determined using the Promega 96 Aqueous cell proliferation assay kit (Promega, Madison, Wis.). Absorbance at 490 nm was recorded using a Microplate Fluorescent Reader, model FL600 (Bio-Tek, Winooski, Vt.).

MCF-7-AdrR/asGCS cells [2] = assay: Cytotoxicity assay in MCF-7-AdrR/asGCS cells; settings: 72 hr exposure; for EC50: Homo sapiens, MCF-7-AdrR/asGCS cells, read-out: EC50 (amount of drug provoking 50% cell death)
Protocol: as §1

caspase-3 [3] = assay: Caspase-3 assay (DEVD-AFC cleavage) in MCF-7-AdrR/asGCS cells; settings: for increase of caspase-3 activity over control: MCF-7-AdrR/asGCS cells, 10 μM; for caspase-3 activity in GCS antisense-transfected cells vs parental cells: adriamycin 10 μM
Protocol: (§2) Caspase-3 Assay. Caspase-3 activity was assayed by DEVD-AFC cleavage, using the ApoAlert Caspase-3 assay kit (Clontech, Palo Alto, Calif.). The assay was performed as previously described (Liu, Y. Y., et al., (1999) Exp. Cell Res. 252, 464-470). Cells were seeded in 100-mm dishes (500,000 cells/dish) in 10% FBS RPMI-1640 medium. After 24 hr, cells were shifted to 5% FBS RPMI-1640 medium without or with adriamycin, and grown for 24 and 48 hr. Following harvest, cells ([…]) were lysed on ice for 10 min with 50 μl of lysis buffer, and cell debris was removed by centrifugation at 4° C., 10,000×g, for 5 min. The soluble fraction was incubated with 50 μM conjugated substrate DEVD-AFC in a 100 μl reaction volume at 37° C., for 60 min. The free AFC fluoresce was measured at λexcitation 400 nm and λemission 505 nm using a FL600 Microplate Fluorescence Reader. The caspase-3 inhibitor, acetyl-Asp-Glu-Val-Asp-aldehyde was used to exclude nonspecific background in the enzymatic reaction.

caspase-3 [4] = assay: Caspase-3 assay (DEVD-AFC cleavage) in MCF-7-AdrR cells; settings: 10 μM, 48 hr
Protocol: as §2

MCF-7-AdrR cells [5] = assay: Analysis of ceramide in MCF-7-AdrR cells; settings: 48 hr
Protocol: (§3) Analysis of Ceramide. Analysis was performed as previously described (Liu, Y. Y.et al., (1999) J. Biol. Chem. 274, 1140-1146, Lavie, Y., et al., (1996) J. Biol. Chem. 271, 19530-19536). Cells were seeded in 6-well plates (60,000 cells/well) in 10% FBS RPMI-1640 medium. After 24 hr, cells were shifted to 5% FBS medium with or without adriamycin, and grown for the indicated times. Cellular lipids were radiolabeled by adding [3H]palmitic acid (2.5 μCi/ml culture medium) for 24 hr. After removal of medium, cells were rinsed twice with PBS (pH 7.4), and total lipids were extracted as described (Lavie, Y. et al.,. (1996) J. Biol. Chem. 271, 19530-19536). The resulting organic lower phase was withdrawn and evaporated under a stream of nitrogen. Lipids were resuspended in 100 μl of chloroform/methanol (1:1, v/v), and aliquots were applied to TLC plates. Ceramide was resolved using a solvent system containing chloroform/acetic acid (90:10, v/v). Commercial lipid standards were co-chromatographed. After development, lipids were visualized by iodine vapor staining, and the ceramide area was scraped into 0.5 ml water. EcoLume counting fluid (4.5 ml) was added, the samples were mixed, and radioactivity was quantitated by liquid scintillation spectrometry.

MCF-7-AdrR/asGCS cells [6] = assay: Analysis of ceramide in MCF-7-AdrR/asGCS cells
Protocol: as §3

SMILES | EC50 (MCF-7-AdrR cells [1]; Homo sapiens, 72 h) | decrease of EC50 in MCF-7-AdrR/asGCS vs MCF-7-AdrR cells (MCF-7-AdrR/asGCS cells [2]) | EC50 (MCF-7-AdrR/asGCS cells [2]) | increase of caspase-3 activity over control (caspase-3 [3]; 24 hr) | increase of caspase-3 activity over control (caspase-3 [3]; 48 hr) | caspase-3 activity in GCS antisense-transfected cells vs parental cells (caspase-3 [3]; 24 hr) | caspase-3 activity in GCS antisense-transfected cells vs parental cells (caspase-3 [3]; 48 hr) | EC50 (MCF-7-AdrR cells [1]; hydrochloride) | increase of caspase-3 activity (caspase-3 [4]) | increase of ceramide levels above control (MCF-7-AdrR cells [5]; adriamycin 2.5 μM) | ceramide level response (MCF-7-AdrR cells [5]; adriamycin 0.5-2.5 μM) | enhancement of ceramide levels (MCF-7-AdrR/asGCS cells [6]; adriamycin 0.5 μM, 48 hr) | enhancement of ceramide levels (MCF-7-AdrR/asGCS cells [6]; adriamycin 1.0 μM, 48 hr) | increase of ceramide levels (MCF-7-AdrR/asGCS cells [6]; adriamycin 2.5 μM, 24 hr) | increase of ceramide levels (MCF-7-AdrR/asGCS cells [6]; adriamycin 2.5 μM, 48 hr) | enhancement of ceramide levels (MCF-7-AdrR/asGCS cells [6]; adriamycin 2.5 μM, 48 hr (dose series))
CCCCCCCCCCCCC/C=C/[C@@H](O)[C@H](CO)NC(=O)CCCCC [C6-ceramide, N-hexanoylsphingosine] | 9.6 ± 0.5 µM | 2.4 fold | 4 ± 0.03 µM | – | – | – | – | – | – | – | – | – | – | – | – | –
COc1cccc2c1C(=O)c1c(O)c3c(c(O)c1C2=O)C[C@@](O)(C(=O)CO)C[C@@H]3O[C@H]1C[C@H](N)[C@H](O)[C@H](C)O1 [adriamycin, doxorubicin hydrochloride] | 12.4 ± 0.7 µM | 28 fold | 0.44 ± 0.01 µM | 290% | 980% | 3 fold | 6 fold | 10 µM | 160% | 16% | minimal response | 181% | 188% | 200% | 250% | 246%

Reference: US20030095953A1, “METHODS OF REVERSING DRUG RESISTANCE IN CANCER CELLS” (priority 1999, published 2003)
